Where “and” joins values, the source holds several entries; their conditions need not be identical. Equal entries are not always repeated. Structures can show the parent of a compound that is named as a salt.
What was measured:
[1] = test system: patients with seasonal allergic rhinitis (SAR); test: MP 428 study: adverse events, Safety Population; assay type: in vivo, human
Protocol: A two-week, randomized, double-blind study, which evaluated the effects of the co-administration of ASTELIN® (azelastine hydrochloride (HCl)) and FLONASE® (fluticasone propionate) compared to either product alone in patients with seasonal allergic rhinitis (SAR) was conducted during the 2006 Texas mountain cedar season. After a 5-day placebo lead-in period, 151 patients with moderate-to-severe allergic rhinitis symptoms were randomized to either: (1) (49 total patients) ASTELIN® (azelastine hydrochloride (HCl)) plus placebo saline nasal spray 2 sprays per nostril, 15 minutes apart, twice daily (AM & PM); (2) (50 total patients) FLONASE® (fluticasone propionate) plus placebo saline nasal spray, 2 sprays per nostril, 15 minutes apart, once daily (AM) and two sessions of placebo saline nasal spray, 2 sprays per nostril, 15 minutes apart (PM); or (3) (52 total patients) the co-administration of ASTELIN® (azelastine hydrochloride (HCl)) 2 sprays per nostril plus FLONASE® (fluticasone propionate) 2 sprays per nostril (AM), 15 minutes apart, and ASTELIN® (azelastine hydrochloride (HCl)) 2 sprays per nostril plus placebo saline nasal spray, 15 minutes apart, (PM) for a 2-week double-blind treatment period.
The most common adverse events (AEs) were bitter taste (8.2% in ASTELIN® (azelastine hydrochloride (HCl)) group, 2.0% in FLONASE® (fluticasone propionate) group, 13.5% in co-administration group) and headache (4.1% in ASTELIN® (azelastine hydrochloride (HCl)) group, 4.0% in FLONASE® (fluticasone propionate) group, 5.8% in co-administration group). No other AE was reported by more than one patient in any treatment group. There were no discontinuations due to AEs.

[2] = test system: patients with seasonal allergic rhinitis (SAR); test: MP 428 study: Adult Rhinoconjunctivitis Quality of Life Questionnaire outcomes, change from baseline; assay type: in vivo, human; details: Day 14/ET; Intent-to-Treat Population

CN1CCCC(n2nc(Cc3ccc(Cl)cc3)c3ccccc3c2=O)CC1 (racemic) [Azelastine, (±)-1-(2H)-phthalazinone, 4-[(4-chlorophenyl)methyl]-2-(hexahydro-1-methyl-1H-azepin-4-yl)-, mono-hydrochloride]
Treatment-Emergent AE: NASAL DISCOMFORT ([1]; max severity Mild): 0 (0.0) No. of Patients (%)
Treatment-Emergent AE: NECK PAIN ([1]; max severity Mild): 1 (2.0) No. of Patients (%)
Treatment-Emergent AE: NERVOUS SYSTEM DISORDERS, Any Preferred Term ([1]; max severity Mild): 1 (2.0) No. of Patients (%)
Treatment-Emergent AE: PHARYNGOLARYNGEAL PAIN ([1]; max severity Mild): 0 (0.0) No. of Patients (%)
Treatment-Emergent AE: RESPIRATORY, THORACIC AND MEDIASTINAL DISORDERS, Any Preferred Term ([1]; max severity Mild): 0 (0.0) No. of Patients (%)
Treatment-Emergent AE: STOMACH DISCOMFORT ([1]; max severity Mild): 0 (0.0) No. of Patients (%)
Treatment-Emergent AE: Any Adverse Event ([1]; max severity Mild, mono-hydrochloride): 3 (6.1) No. of Patients (%) and 3 (0.1) No. of Patients (%)
Treatment-Emergent AE: Any Adverse Event ([1]; max severity Moderate): 2 (4.1) No. of Patients (%)
Treatment-Emergent AE: DRY MOUTH ([1]; max severity Moderate): 0 (0.0) No. of Patients (%)
Treatment-Emergent AE: DYSGEUSIA ([1]; max severity Moderate): 0 (0.0) No. of Patients (%)
Treatment-Emergent AE: EAR AND LABYRINTH DISORDERS, Any Preferred Term ([1]; max severity Moderate): 1 (2.0) No. of Patients (%)
Treatment-Emergent AE: EAR PAIN ([1]; max severity Moderate): 1 (2.0) No. of Patients (%)
Treatment-Emergent AE: EPISTAXIS ([1]; max severity Moderate): 0 (0.0) No. of Patients (%)
Treatment-Emergent AE: GASTROINTESTINAL DISORDERS, Any Preferred Term ([1]; max severity Moderate): 0 (0.0) No. of Patients (%)
Treatment-Emergent AE: HEADACHE ([1]; max severity Moderate): 1 (2.0) No. of Patients (%)
Treatment-Emergent AE: MUSCULOSKELETAL AND CONNECTIVE TISSUE DISORDERS, Any Preferred Term ([1]; max severity Moderate): 0 (0.0) No. of Patients (%)
Treatment-Emergent AE: MYALGIA ([1]; max severity Moderate): 0 (0.0) No. of Patients (%)
Treatment-Emergent AE: NASAL DISCOMFORT ([1]; max severity Moderate): 0 (0.0) No. of Patients (%)
Treatment-Emergent AE: NECK PAIN ([1]; max severity Moderate): 0 (0.0) No. of Patients (%)
Treatment-Emergent AE: NERVOUS SYSTEM DISORDERS, Any Preferred Term ([1]; max severity Moderate): 1 (2.0) No. of Patients (%)
Treatment-Emergent AE: PHARYNGOLARYNGEAL PAIN ([1]; max severity Moderate): 1 (2.0) No. of Patients (%)
Treatment-Emergent AE: RESPIRATORY, THORACIC AND MEDIASTINAL DISORDERS, Any Preferred Term ([1]; max severity Moderate): 1 (2.0) No. of Patients (%)
Treatment-Emergent AE: STOMACH DISCOMFORT ([1]; max severity Moderate): 0 (0.0) No. of Patients (%)
Treatment-Emergent AE: Any Adverse Event ([1]; max severity Severe): 3 (6.1) No. of Patients (%)
Treatment-Emergent AE: DRY MOUTH ([1]; max severity Severe): 0 (0.0) No. of Patients (%)
Treatment-Emergent AE: DYSGEUSIA ([1]; max severity Severe): 3 (6.1) No. of Patients (%)
Treatment-Emergent AE: EAR AND LABYRINTH DISORDERS, Any Preferred Term ([1]; max severity Severe): 0 (0.0) No. of Patients (%)
Treatment-Emergent AE: EAR PAIN ([1]; max severity Severe): 0 (0.0) No. of Patients (%)
Treatment-Emergent AE: EPISTAXIS ([1]; max severity Severe): 0 (0.0) No. of Patients (%)
Treatment-Emergent AE: GASTROINTESTINAL DISORDERS, Any Preferred Term ([1]; max severity Severe): 3 (6.1) No. of Patients (%)
Treatment-Emergent AE: HEADACHE ([1]; max severity Severe): 0 (0.0) No. of Patients (%)
Treatment-Emergent AE: MUSCULOSKELETAL AND CONNECTIVE TISSUE DISORDERS, Any Preferred Term ([1]; max severity Severe): 0 (0.0) No. of Patients (%)
Treatment-Emergent AE: MYALGIA ([1]; max severity Severe): 0 (0.0) No. of Patients (%)
Treatment-Emergent AE: NASAL DISCOMFORT ([1]; max severity Severe): 0 (0.0) No. of Patients (%)
Treatment-Emergent AE: NECK PAIN ([1]; max severity Severe): 0 (0.0) No. of Patients (%)
Treatment-Emergent AE: NERVOUS SYSTEM DISORDERS, Any Preferred Term ([1]; max severity Severe): 0 (0.0) No. of Patients (%)
Treatment-Emergent AE: PHARYNGOLARYNGEAL PAIN ([1]; max severity Severe): 0 (0.0) No. of Patients (%)
Treatment-Emergent AE: RESPIRATORY, THORACIC AND MEDIASTINAL DISORDERS, Any Preferred Term ([1]; max severity Severe): 0 (0.0) No. of Patients (%)
Treatment-Emergent AE: STOMACH DISCOMFORT ([1]; max severity Severe): 0 (0.0) No. of Patients (%)
adverse event: bitter taste ([1]; share of treatment group): 8.2%
adverse event: headache ([1]; share of treatment group): 4.1%
RQLQ Change From Baseline in Activity, LS Mean [2]: −1.37
RQLQ Change From Baseline in Activity, Mean [2]: −1.25
RQLQ Change From Baseline in Activity, Median [2]: −1.00
RQLQ Change From Baseline in Emotional, LS Mean [2]: −1.26
RQLQ Change From Baseline in Emotional, Mean [2]: −1.13
RQLQ Change From Baseline in Emotional, Median [2]: −1.00
RQLQ Change From Baseline in Eye Symptoms, LS Mean [2]: −1.64
RQLQ Change From Baseline in Eye Symptoms, Mean [2]: −1.49
RQLQ Change From Baseline in Eye Symptoms, Median [2]: −1.25
RQLQ Change From Baseline in Nasal Symptoms, LS Mean [2]: −1.46
RQLQ Change From Baseline in Nasal Symptoms, Mean [2]: −1.31
RQLQ Change From Baseline in Nasal Symptoms, Median [2]: −1.25
RQLQ Change From Baseline in Non-nose/eye Symptoms, LS Mean [2]: −0.88
RQLQ Change From Baseline in Non-nose/eye Symptoms, Mean [2]: −0.82
RQLQ Change From Baseline in Non-nose/eye Symptoms, Median [2]: −0.86
RQLQ Change From Baseline in Overall Score, LS Mean [2]: −1.21
RQLQ Change From Baseline in Overall Score, Mean [2]: −1.11
RQLQ Change From Baseline in Overall Score, Median [2]: −1.13
RQLQ Change From Baseline in Practical Problems, LS Mean [2]: −1.59
RQLQ Change From Baseline in Practical Problems, Mean [2]: −1.50
RQLQ Change From Baseline in Practical Problems, Median [2]: −1.33
RQLQ Change From Baseline in Sleep, LS Mean [2]: −1.23
RQLQ Change From Baseline in Sleep, Mean [2]: −1.02
RQLQ Change From Baseline in Sleep, Median [2]: −1.00

Source: patent publication US8758816B2, “Compositions comprising azelastine and methods of use thereof” (priority 2004, dated 2014)
